The subject of one data set is CL1-0 cells. The data set is described as follows: MTS cell viability, drug treatment of mock transfected cells. The format is cell-based, human. Conditions: control mock transfected CL1-0 cells; increasing concentrations, 72 hours. The method, then:
(§1) FIGS. 10A and 10B show implication of phospho-MARCKS levels in drug resistance. (A) Effects of ectopic V5-tagged PSD-mutant or wild type MARCKS expression on CL1-0 cells in response to various drug treatments. (B) Effects of MARCKS shRNA silencing on A549 cells in response to various drug treatments. Western blot analyses were carried out to determine phospho-MARCKS and total MARCKS levels in these stable cells with appropriate antibodies. The cells were subjected to various doses of cisplatin, paclitaxel, erlotinib or dasatinib for treatment, as indicated. After 72 hours of treatment, cell viability was determinate by MTS assays. Data shown as mean±SD. *P<0.05 versus mock (A; n=3); *P<0.05 versus control shRNA (B; n=4).
To determine if the MARCKS phosphorylation step can serve as a therapeutic target, Applicants evaluated whether the status of MARCKS PSD phosphorylation could alter the sensitivity of NSCLC cells to chemotherapeutic agents and tyrosine kinase inhibitors (TKIs). The V5-tagged wild-type and PSD-mutated (S159/163A) MARCKS constructs were generated and transfected into low MARCKS-expressing CL1-0 cells (FIG. 16A) (Chen, C. H. et al. (2013) Oncogene) for establishing stable clones. These stable cell lines were exposed to increasing concentrations of cisplatin, paclitaxel, erlotinib or dasatinib for 72 hours. […] These toxicities were repressed by enforced expression of V5-tagged wild type MARCKS, but not by overexpression of the S159/163A mutant.

The test system of another data set is H1650 and H1975 cells. Conditions: 0.5 μM erlotinib alone; 48 hours.
The next data set concerns A549 cells. The data set is described as follows: MTS drug sensitivity of MARCKS-knockdown cells. The format is cell-based, human. Conditions: stable MARCKS-knockdown A549 cells versus control shRNA; 72 hours. As for the experimental part:
as §1
For enforced expression of V5-tagged MARCKS in CL1-0, lung cancer cells were transfected with pcDNA3.1-MARCKS, pcDNA3.1-S159/163A MARCKS or pcDNA3.1 vector using lipofectamine reagent (Invitrogen), according to the manufacturer's protocol. After culturing in medium containing with 400 μg/mL of G418 (Invitrogen) for 2-3 weeks, individual clones were isolated. Clones that expressed the MARCKS cDNA coding region were maintained in medium containing 200 μg/mL of G418 and used for further investigation. Applicants also established a MARCKS-mixed knockdown stable A549 transfectant. […]

Experimental for H1650 and H1975 cells: The combinatorial effect of MPS peptide with erlotinib on cancer cell lines. Two chemoresistant lung cancer cells, H1650 (Left) and H1975 (Right) cells were respectively co-treated with various dosages of erlotinib and 50 μM MPS peptide. After 48 hours, cell viability was determinate by MTS assay. *, P<0.05.
Two erlotinib resistant cell lines, H1975 (left) and H1650 (right), were co-treated with various dosages of erlotinib and 50 μM MPS peptide. After 48 hours, cell viability was determined by MTS assay. *, P<0.05.
Cells were seeded onto 96-well plates at a density of 5-10×10^3 cells per well and cultured for the indicated treatment. Cell viability was evaluated using a MTS assay kit (Promega, Madison, Wis.). Twenty microliters of the combined MTS/PMS solution was added into each well, incubated for 3 hours at 37° C., and the absorbance was measured at 490 nm by using an ELISA reader.

As for `CC(=O)O[C@H]1C(=O)[C@@]2(C)[C@H]([C@H](OC(=O)c3ccccc3)[C@]3(O)C[C@H](OC(=O)[C@H](O)[C@@H](NC(=O)c4ccccc4)c4ccccc4)C(C)=C1C3(C)C)[C@]1(OC(C)=O)CO[C@@H]1C[C@@H]2O` [paclitaxel], in the data set on CL1-0 cells, the Cell viability entry is “dose-dependent decrease of cell viability”.
Turning to `C#Cc1cccc(Nc2ncnc3cc(OCCOC)c(OCCOC)cc23)c1` [erlotinib], the “Cell viability compared to untreated cells” value in the data set with H1650 and H1975 cells is reported as “no significant decrease in cell viability”. Also, the Cell viability entry in the data set on CL1-0 cells was “dose-dependent decrease of cell viability”.
Regarding “5′-GAGCGCTTCTCCTTCAAGAA-3′ (expressed or natural sequence) [MARCKS shRNA-c, common MARCKS-specific short hairpin RNA]”, the “Sensitivity to cisplatin, paclitaxel, erlotinib, dasatinib” value in the data set on A549 cells is given as “enhanced sensitivity to these drugs”.
As to `N.N.[Cl][Pt][Cl]` [cisplatin], the Cell viability entry with CL1-0 cells is listed as “dose-dependent decrease of cell viability”.

The values are drawn from US10189881B2, “MPS peptides and use thereof” (The Regents of the University of California, priority 2013, dated 2019).
